In publication PMC11109252, “Synthetic aporphine alkaloids are potential therapeutics for Leigh syndrome” (Scientific Reports, 2024):
Entries after “also recorded” stand apart in the source; their conditions may differ.

Key:
[1] = test system: GDF-15; assay: GDF-15 levels in the cell supernatant (ELISA); type: cell-based, human; conditions: 24 h after co-administration with RSL3, compared to RSL3-only
Experimental: GDF-15 is a biomarker that is elevated in the blood of patients with mitochondrial diseases and is used for the diagnosis of mitochondrial diseases and determination of therapeutic efficacy[26],[36]. […] As previously reported, GDF-15 levels were measured by an enzyme-linked immuno sorbent assay (ELISA) using the Quantikin Human GDF-15 ELISA Kit (R&D Systems, Minneapolis, MN, USA). Samples were obtained from anti-RSL3-induced cell death assays with candidate compounds (D31, D55, and D40), and cell supernatants 24 h after reagent addition were used for the assay. Measured values were calculated with reference to internal standards and compared to GDF-15 values.

[2] = test system: LS patient-derived skin fibroblasts; assay: Anti-BSO-induced cell death activity assay; conditions: for EC50: viable cells 48 h after addition
[3] = test system: LS patient-derived skin fibroblasts; assay: Anti-RSL3-induced cell death activity assay; type: cell-based; conditions: Homo sapiens, Skin fibroblast, read-out: Anti-RSL3-induced cell death effect EC50
Experimental: RSL3 is a glutathione peroxidase 4 (GPx4) inhibitor that specifically induces ferroptosis. Ferroptosis is an iron-dependent non-apoptotic type of cell death caused by lipid peroxidation.
After 24 h of incubation, the reagents were added to the RSL3 (−) derivative (−) and RSL3 ( +) derivative ( +) groups. […] The final concentration of RSL3 was 50–200 nM that would cause approximately 80–90% cell death after 24 h of incubation. The percentage of viable cells was measured 24 h after addition of each reagent.

[4] = test system: LS patient-derived skin fibroblasts; assay: Mitochondrial ATP production capacity (extracellular flux analyzer, OCR); type: cell-based, human; conditions: 100 nM compound
From the text: The extracellular flux analyzer Seahorse XFe96 (Agilent Technologies, Santa Clara, CA, USA) was used to evaluate the mitochondrial function. The extracellular flux analyzer measures the oxygen consumption rate (OCR) in the mitochondria during ATP synthesis and can also evaluate the intracellular mitochondrial function. The endpoints were the basal OCR, ATP-linked OCR, maximal OCR, and spare capacity, which are key indicators of the mitochondrial function in assays using living cells. Each indicator was calculated by continuously adding ATP synthase inhibitors (oligomycin, rotenone and antimycin A) and deconjugating agents (carbonyl cyanide-p-trifluoromethoxyphenylhydrazone [FCCP]) during the measurement (Fig. 6). […] The OCR was measured over time by adding oligomycin (2 μM concentration) 20 min after drug addition, FCCP (2 μM concentration) 50 min later, and rotenone and antimycin A (0.5 μM concentration) 80 min later.

[5] = test system: GDF-15; conditions: cited from earlier work
[6] = cited from earlier work
[7] = test system: LS patient-derived skin fibroblasts; conditions: cited from earlier work
[8] = molecular target: T1, dopamine D2 receptors (Homo sapiens, UniProt P14416); assay: Dopamine D2 receptor agonist assay (GeneBLAzer D2-Gqo5-NFAT-bla CHO-K1 reporter); type: cell-based; conditions: CHO cells stably expressing dopamine D2 receptors; NA: no activity; read-out: Dopamine D2 receptor agonist (DA) activity EC50
T1 construct: host or cells: CHO-K1 (GeneBLAzer D2-Gqo5-NFAT-bla)
T1 sequence (P14416 whole entry): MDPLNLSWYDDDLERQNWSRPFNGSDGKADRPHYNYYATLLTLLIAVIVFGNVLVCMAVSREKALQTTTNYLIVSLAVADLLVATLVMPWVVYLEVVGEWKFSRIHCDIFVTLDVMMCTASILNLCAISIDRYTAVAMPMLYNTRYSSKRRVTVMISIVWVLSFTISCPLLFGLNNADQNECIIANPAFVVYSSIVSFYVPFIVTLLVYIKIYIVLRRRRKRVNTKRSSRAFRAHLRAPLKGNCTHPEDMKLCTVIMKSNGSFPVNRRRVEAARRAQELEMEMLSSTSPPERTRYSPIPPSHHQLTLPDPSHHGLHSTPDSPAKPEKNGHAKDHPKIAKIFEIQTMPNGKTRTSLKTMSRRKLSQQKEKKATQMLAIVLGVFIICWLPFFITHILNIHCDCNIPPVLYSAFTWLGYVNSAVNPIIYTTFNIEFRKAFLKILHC
Experimental: CHO-K1 cells were spread in 384-well plates at 10,000 cells/32 μL/well, taking care not to touch the bottom of the wells. Cell-free-wells were injected with the same volume (32 μL) of assay medium. The plates were then incubated in a CO2 incubator for 16–20 h. […] The diluted solution (8 μL/well) was added to 384-well plates seeded with CHO-K1 cells and incubated in a CO2 incubator for 5 h. […] The addition of the drug induces D2 receptor activation, which activates signaling pathways and transcription factors, resulting in the expression of a reporter gene (β-lactamase) and cleavage of the fluorescence resonance energy transfer (FRET) substrate, causing the fluorescence to change from green to blue.

[9] = Homo sapiens, Skin fibroblast, 48 h, read-out: Anti-BSO-induced cell death effect EC50, co-added with BSO at a concentration giving 10%-20% cell viability

SMILES	GDF-15 elevation in cell supernatant [1]	EC50 [2, 9] [µM]	EC50 ([2]; read-out: Anti-BSO-induced cell death effect EC50, co-added with BSO at a concentration giving 10%-20% cell viability) [µM]	EC50 ([3]; 24 h) [µM]	Enhancement of mitochondrial ATP production [4]	Anti-BSO cell death effect retained (same as apomorphine) ([2]; comparison of D29, D30, D31)	GDF-15 elevation in culture supernatant [5]	Concentrations in the brain versus plasma [6]	ATP production in LS patient-derived skin fibroblasts [7]	EC50 ([3]; co-added with RSL3 at a concentration giving 10%-20% cell viability, viable cells 24 h after addition) [µM]	EC50 [8] [µM]
CCCOc1ccc2c(c1O)-c1cccc3c1[C@@H](C2)N(C)CC3 [D40, (9R)-10-methyl-4-propoxy-10-azatetracyclo[7.7.1.0²,⁷.0¹³,¹⁷]heptadeca-1(17),2,4,6,13,15-hexaen-3-ol]	suppressed GDF-15 elevation; also recorded: significant decrease	< 0.1	0.055	0.231	showed any ability to enhance mitochondrial ATP production; also recorded: No significant enhancement						
COc1ccc2c(c1O)-c1cccc3c1[C@@H](C2)N(C)CC3 [D31, (9R)-4-methoxy-10-methyl-10-azatetracyclo[7.7.1.0²,⁷.0¹³,¹⁷]heptadeca-1(17),2,4,6,13,15-hexaen-3-ol]	suppressed GDF-15 elevation; also recorded: significant decrease			0.027	showed any ability to enhance mitochondrial ATP production; also recorded: No significant enhancement	retained its anti-BSO cell death effect; also recorded: the only compound with the same anti-BSO-induced cell death activity as apomorphine					
CCOc1ccc2c(c1O)-c1cccc3c1[C@@H](C2)N(C)CC3 [D55, (9R)-4-ethoxy-10-methyl-10-azatetracyclo[7.7.1.0²,⁷.0¹³,¹⁷]heptadeca-1(17),2,4,6,13,15-hexaen-3-ol]	suppressed GDF-15 elevation; also recorded: significant decrease			0.021	showed any ability to enhance mitochondrial ATP production; also recorded: No significant enhancement						
CN1CCc2cccc3c2[C@H]1Cc1ccc(O)c(O)c1-3 [Apo, (9R)-10-methyl-10-azatetracyclo[7.7.1.0²,⁷.0¹³,¹⁷]heptadeca-1(17),2,4,6,13,15-hexaene-3,4-diol]	significant decrease				No significant enhancement		inhibits GDF-15 elevation	up to three-fold higher	increase ATP production		
CN1CCc2cccc3c2[C@H]1Cc1ccc(-c2ccccc2)c(O)c1-3 [D45, (9R)-10-methyl-4-phenyl-10-azatetracyclo[7.7.1.0²,⁷.0¹³,¹⁷]heptadeca-1(17),2,4,6,13,15-hexaen-3-ol]		< 0.1								0.745	2.63
